Measurements as given in PubChem BioAssay AID330 (DTP/NCI, 2004).
Where “and” joins values, the source holds several entries; their conditions need not be identical. Identical values can stand only once. Toxic doses and inconclusive results are not listed.

System: P388 leukemia ip, CD2F1 mice, survival T/C
Assay: NCI In Vivo Anticancer Drug Screen. Data for tumor model P388 Leukemia (intraperitoneal) in CD2F1 (CDF1) mice
Conditions: endpoint: median survival time, higher = longer survival
Procedure, shortened: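 Mice carrying the transplanted tumor received test compound or vehicle. Survival was recorded in each group, and the value is the treated-group measurement divided by that of the vehicle-treated control group.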

[1] = dose: 50.0 mg/kg/injection, schedule: Q01DX009 (ip), vehicle: suspension in saline
[2] = dose: 100.0 mg/kg/injection, schedule: Q01DX009 (ip), vehicle: suspension in saline
[3] = dose: 200.0 mg/kg/injection, schedule: Q01DX009 (ip), vehicle: suspension in saline
[4] = dose: 100.0 mg/kg/injection, schedule: Q01DX009 (ip), vehicle: saline with Tween-80
[5] = dose: 200.0 mg/kg/injection, schedule: Q01DX009 (ip), vehicle: saline with Tween-80
[6] = dose: 6.25 mg/kg/injection, schedule: Q01DX005 (ip), vehicle: Klucel (hydroxypropylcellulose) (HPC)
[7] = dose: 12.5 mg/kg/injection, schedule: Q01DX005 (ip), vehicle: Klucel (hydroxypropylcellulose) (HPC)
[8] = dose: 25.0 mg/kg/injection, schedule: Q01DX005 (ip), vehicle: Klucel (hydroxypropylcellulose) (HPC)
[9] = dose: 60.0 mg/kg/injection, schedule: Q01DX005 (ip), vehicle: saline with Tween-80
[10] = dose: 120.0 mg/kg/injection, schedule: Q01DX005 (ip), vehicle: saline with Tween-80
[11] = dose: 240.0 mg/kg/injection, schedule: Q01DX005 (ip), vehicle: saline with Tween-80
[12] = dose: 12.5 mg/kg/injection, schedule: Q01DX005 (ip), vehicle: saline
[13] = dose: 25.0 mg/kg/injection, schedule: Q01DX005 (ip), vehicle: saline
[14] = dose: 50.0 mg/kg/injection, schedule: Q01DX009 (ip), vehicle: saline with Tween-80

For `CCn1c2nc(=O)[nH]c(=O)c-2cc2ccccc21`, the T/C (dose: 45.0 mg/kg/injection, schedule: Q01DX009 (ip), vehicle: saline with Tween-80) was 113 % of control, the T/C (dose: 90.0 mg/kg/injection, schedule: Q01DX009 (ip), vehicle: saline with Tween-80) was 103 % of control and the T/C (dose: 180.0 mg/kg/injection, schedule: Q01DX009 (ip), vehicle: saline with Tween-80) was 101 % of control.

In the case of `Nc1c(C(=O)Nc2ccc(NC(=O)c3ccc4c(c3N)C(=O)c3ccccc3C4=O)c3c2C(=O)c2ccccc2C3=O)ccc2c1C(=O)c1ccccc1C2=O`, the T/C [1] is reported as 103 % of control, the T/C [2] is reported as 106 % of control and the T/C [3] is reported as 103 % of control.

In the case of `COC(=O)C[N+](C)(C)Cc1ccccc1`, the T/C (dose: 50.0 mg/kg/injection, schedule: Q01DX009 (ip), vehicle: DMSO) is reported as 97 % of control and the T/C (dose: 100.0 mg/kg/injection, schedule: Q01DX009 (ip), vehicle: DMSO) is reported as 99 % of control.

With `NC(=O)C1=C(N)CCC1` the T/C [4] was 90 % of control, the T/C [5] was 90 % of control and the T/C (dose: 400.0 mg/kg/injection, schedule: Q01DX009 (ip), vehicle: saline with Tween-80) was 100 % of control.

In the case of `C=C(C1=CC(=O)C(C)=C(OC)C1=O)C(CC=C(C)C)OC(=O)/C(C)=C/C` (stereo unspecified), the T/C (dose: 1.56 mg/kg/injection, schedule: Q01DX005 (ip), vehicle: Klucel (hydroxypropylcellulose) (HPC)) is reported as 92 % of control, the T/C (dose: 3.12 mg/kg/injection, schedule: Q01DX005 (ip), vehicle: Klucel (hydroxypropylcellulose) (HPC)) is reported as 99 % of control and the T/C [6] is reported as 101 % of control. For the same compound, the T/C [7] was 96 % of control and the T/C [8] was 102 % of control.

With `CN(C)CC[CH2][Sn]([CH3])([Br])[Br]` the T/C (dose: 1.56 mg/kg/injection, schedule: Q01DX009 (ip), vehicle: saline) was 100 % of control and 101 % of control.

`c1ccc(CSc2ncnc3nc[nH]c23)cc1` was tested, and the T/C (dose: 12.5 mg/kg/injection, schedule: Q01DX010 (ip), vehicle: saline) was 100 % of control, the T/C (dose: 25.0 mg/kg/injection, schedule: Q01DX010 (ip), vehicle: saline) was 100 % of control and the T/C (dose: 50.0 mg/kg/injection, schedule: Q01DX010 (ip), vehicle: saline) was 90 % of control. For the same compound, the T/C (dose: 100.0 mg/kg/injection, schedule: Q01DX010 (ip), vehicle: saline) was 90 % of control.

In the case of `Brc1nc(Br)c(Br)[nH]1`, the T/C (dose: 50.0 mg/kg/injection, schedule: Q01DX009 (ip), vehicle: saline sonified) is reported as 91 % of control.

In the case of `O=S1(=O)CC(N2CCOCC2)C2=C(O1)c1sc(-c3ccccc3)nc1CC2` (stereo unspecified), the T/C (dose: 50.0 mg/kg/injection, schedule: Q01DX005 (ip), vehicle: Klucel (hydroxypropylcellulose) (HPC)) is reported as 104 % of control, the T/C (dose: 100.0 mg/kg/injection, schedule: Q01DX005 (ip), vehicle: Klucel (hydroxypropylcellulose) (HPC)) is reported as 105 % of control and the T/C (dose: 200.0 mg/kg/injection, schedule: Q01DX005 (ip), vehicle: Klucel (hydroxypropylcellulose) (HPC)) is reported as 98 % of control.

For `CC[N+](C)(C)c1nc(N(C)C)nc(N(C)C)n1`, the T/C (dose: 6.0 mg/kg/injection, schedule: Q01DX005 (ip), vehicle: saline) was 108 % of control and the T/C (dose: 12.0 mg/kg/injection, schedule: Q01DX005 (ip), vehicle: saline) was 118 % of control.

For `COc1ccc(S(=O)(=O)N/N=C/c2cc([N+](=O)[O-])cc(I)c2O)cc1OC`, the T/C [9] was 97 % of control, the T/C [10] was 94 % of control and the T/C [11] was 91 % of control.

For `CC1=NNC(=O)CC1C(O)c1ccccc1` (stereo unspecified), the T/C (dose: 60.0 mg/kg/injection, schedule: Q01DX005 (ip), vehicle: saline) was 114 % of control, the T/C (dose: 120.0 mg/kg/injection, schedule: Q01DX005 (ip), vehicle: saline) was 101 % of control and the T/C (dose: 240.0 mg/kg/injection, schedule: Q01DX005 (ip), vehicle: saline) was 107 % of control.

In the case of `CCCC(O)(CCC)C1=NCCN1`, the T/C [12] is reported as 103 % of control, the T/C [13] is reported as 102 % of control and the T/C (dose: 50.0 mg/kg/injection, schedule: Q01DX005 (ip), vehicle: saline) is reported as 99 % of control and 102 % of control.

With `CC(=O)Nc1ccc(S(=O)(=O)NCCSSCCNS(=O)(=O)c2ccc(NC(C)=O)cc2)cc1` the T/C (dose: 50.0 mg/kg/injection, schedule: Q01DX009 (ip), vehicle: Klucel (hydroxypropylcellulose) (HPC)) was 102 % of control, the T/C (dose: 100.0 mg/kg/injection, schedule: Q01DX009 (ip), vehicle: Klucel (hydroxypropylcellulose) (HPC)) was 94 % of control and the T/C (dose: 200.0 mg/kg/injection, schedule: Q01DX009 (ip), vehicle: Klucel (hydroxypropylcellulose) (HPC)) was 91 % of control.

`O=C1C=C(c2ccccc2)S(=O)(=O)c2c(O)cccc21` was tested, and the T/C (dose: 50.0 mg/kg/injection, schedule: Q01DX005 (ip), vehicle: saline with Tween-80) was 121 % of control, the T/C (dose: 100.0 mg/kg/injection, schedule: Q01DX005 (ip), vehicle: saline with Tween-80) was 119 % of control and the T/C (dose: 200.0 mg/kg/injection, schedule: Q01DX005 (ip), vehicle: saline with Tween-80) was 118 % of control.

`Cc1cc(N2C(=O)CCSC2=S)c([N+](=O)[O-])cc1C` was tested, and the T/C [1] was 98 % of control, the T/C [2] was 91 % of control and the T/C [3] was 94 % of control.

In the case of `Cc1c2ccncc2c(C)c2c1[nH]c1ccc(OCCN(C)C)cc12`, the T/C (dose: 6.25 mg/kg/injection, schedule: Q04DX002 (ip), vehicle: water) is reported as 108 % of control, the T/C (dose: 12.5 mg/kg/injection, schedule: Q04DX002 (ip), vehicle: water) is reported as 114 % of control and the T/C (dose: 25.0 mg/kg/injection, schedule: Q04DX002 (ip), vehicle: water) is reported as 119 % of control. For the same compound, the T/C (dose: 50.0 mg/kg/injection, schedule: Q04DX002 (ip), vehicle: water) was 87 % of control.

With `CCn1c2ccccc2c2c3ncc4cccn4c3ccc21` the T/C [9] was 94 % of control, the T/C [10] was 98 % of control and the T/C [11] was 106 % of control.

`CCCCCCCCCCCCCC1=C(O)C(=O)C=C(O)C1=O` was tested, and the T/C (dose: 1.0 mg/kg/injection, schedule: Q01DX005 (ip), vehicle: Klucel (hydroxypropylcellulose) (HPC)) was 100 % of control, the T/C (dose: 2.0 mg/kg/injection, schedule: Q01DX005 (ip), vehicle: Klucel (hydroxypropylcellulose) (HPC)) was 105 % of control and the T/C (dose: 4.0 mg/kg/injection, schedule: Q01DX005 (ip), vehicle: Klucel (hydroxypropylcellulose) (HPC)) was 95 % of control. The T/C (dose: 8.0 mg/kg/injection, schedule: Q01DX005 (ip), vehicle: Klucel (hydroxypropylcellulose) (HPC)) was 102 % of control and the T/C (dose: 16.0 mg/kg/injection, schedule: Q01DX005 (ip), vehicle: Klucel (hydroxypropylcellulose) (HPC)) was 98 % of control.

In the case of `Clc1cc[c]([Sn]([Cl])([O][Sn]([Cl])([c]2ccc(Cl)cc2)[c]2ccc(Cl)cc2)[c]2ccc(Cl)cc2)cc1`, the T/C (dose: 3.12 mg/kg/injection, schedule: Q01DX005 (ip), vehicle: saline) is reported as 103 % of control, the T/C (dose: 6.25 mg/kg/injection, schedule: Q01DX005 (ip), vehicle: saline) is reported as 108 % of control and the T/C [12] is reported as 119 % of control. For the same compound, the T/C [13] was 162 % of control.

In the case of `O=C1CSC(c2ccc(C(F)(F)F)cc2)N1c1nncs1` (stereo unspecified), the T/C [9] is reported as 99 % of control, the T/C [10] is reported as 104 % of control and the T/C [11] is reported as 97 % of control.

In the case of `O=C(c1cccnc1)c1cc(-c2ccccn2)c(=O)n2ccccc12`, the T/C (dose: 25.0 mg/kg/injection, schedule: Q01DX009 (ip), vehicle: saline with Tween-80) is reported as 99 % of control and 104 % of control, the T/C [14] is reported as 107 % of control and 109 % of control and 88 % of control and the T/C [4] is reported as 104 % of control and 107 % of control and 89 % of control. For the same compound, the T/C [5] was 90 % of control.

In the case of `CCC1(O)OC(=O)C(C)=C1C` (stereo unspecified), the T/C (dose: 12.5 mg/kg/injection, schedule: Q04DX003 (ip), vehicle: saline) is reported as 98 % of control, the T/C (dose: 25.0 mg/kg/injection, schedule: Q04DX003 (ip), vehicle: saline) is reported as 95 % of control and the T/C (dose: 50.0 mg/kg/injection, schedule: Q04DX003 (ip), vehicle: saline) is reported as 99 % of control.

For `COc1ccc2c3csc4ccccc4c-3nc2c1`, the T/C (dose: 16.0 mg/kg/injection, schedule: Q01DX009 (ip), vehicle: saline) was 107 % of control, the T/C (dose: 25.0 mg/kg/injection, schedule: Q01DX009 (ip), vehicle: saline) was 115 % of control and the T/C (dose: 35.0 mg/kg/injection, schedule: Q01DX009 (ip), vehicle: saline) was 95 % of control.

`NC(=S)c1ccc(N=Cc2ccc(Cl)cc2)cc1` was tested, and the T/C (dose: 50.0 mg/kg/injection, schedule: Q01DX001 (ip), vehicle: Klucel (hydroxypropylcellulose) (HPC)) was 97 % of control, the T/C (dose: 100.0 mg/kg/injection, schedule: Q01DX001 (ip), vehicle: Klucel (hydroxypropylcellulose) (HPC)) was 100 % of control and the T/C (dose: 200.0 mg/kg/injection, schedule: Q01DX001 (ip), vehicle: Klucel (hydroxypropylcellulose) (HPC)) was 102 % of control.

In the case of `Cc1cccc(-n2c(C)nc3c(c(C)c(C)n3-c3ccccc3)c2=N)c1`, the T/C [6] is reported as 97 % of control, the T/C [7] is reported as 100 % of control and the T/C [8] is reported as 99 % of control.

In the case of `O=C1CCC([N+](=O)[O-])C(c2ccccc2)N1` (stereo unspecified), the T/C [14] is reported as 100 % of control.
